The source made the active and inactive calls. How the calls were made is not given here.
System: GENE-TOX genotoxicity assays, various organisms and cells
Test: GENE-TOX mutagenicity studies
Text: GENE-TOX provides genetic toxicology (mutagenicity) test data from expert peer review of open scientific literature for more than 3,000 chemicals from the United States Environmental Protection Agency (EPA). GENE-TOX was established to select assay systems for evaluation, review data in the scientific literature, and recommend proper testing protocols and evaluation procedures for these systems.
GENE-TOX covers the years 1991 - 1998. It is no longer updated.
This is an archive assay for GENE-TOX mutagenicity studies.

[1] = Species/Cell Type: Drosophila melanogaster, Assay Type: Sex-linked recessive lethal gene mutation, Assay Code: SRL+, Evaluation Type: Evaluation A (Pre-1980)
[2] = Species/Cell Type: Salmonella typhimurium (one or more of the five standard strains: TA98, TA100, TA1535, TA1537, and TA1538), Assay Type: Histidine reverse gene mutation, Ames assay, Assay Code: SALT, Evaluation Type: Evaluation A (Pre-1980)
[3] = Species/Cell Type: Mouse, Sex: Male, Assay Type: Sperm morphology, Assay Code: SPI-, Evaluation Type: Evaluation A (Pre-1980)

`CN1CCN(N=O)CC1` was tested, and the mutagenic call (Species/Cell Type: Chinese hamster lung (V79) cells, Assay Type: Forward gene mutation at the HPRT or ouabain locus, Assay Code: V79+, Evaluation Type: Evaluation A (Pre-1980)) was “active; positive”, the mutagenic call [1] was “active; positive” and the mutagenic call [2] was “no conclusion”. The mutagenic call (Species/Cell Type: Salmonella typhimurium, Assay Type: Forward and reverse gene mutation, host-mediated assay, Assay Code: HMA+, Evaluation Type: Evaluation A (Pre-1980)) was “active; positive”.

`CC[C@H]1OC(=O)[C@H](C)[C@@H](O[C@H]2C[C@@](C)(OC)[C@@H](O)[C@H](C)O2)[C@H](C)[C@@H](O[C@@H]2O[C@H](C)C[C@H](N(C)C)[C@H]2O)[C@](C)(O)C[C@@H](C)C(=O)[C@H](C)[C@@H](O)[C@]1(C)O` was tested, and the mutagenic call (Species/Cell Type: Escherichia coli polA (W3119 vs P3478), Assay Type: Rec-assay, DNA effects (bacterial DNA repair), Assay Code: RE1-, Evaluation Type: Evaluation A (Pre-1980)) was “inactive; negative”.

In the case of `CC(C)OC(=O)Nc1cccc(Cl)c1`, the mutagenic call (Species/Cell Type: Hordeum vulgare (barley), Assay Type: Chromosome aberrations, Assay Code: HOC+, Evaluation Type: Evaluation A (Pre-1980)) is reported as “active; positive”, the mutagenic call (Species/Cell Type: Mammalian polychromatic erythrocytes, Assay Type: Micronucleus test, chromosome aberrations, Assay Code: MNTT, Evaluation Type: Evaluation A (Pre-1980)) is reported as “no conclusion” and the mutagenic call [3] is reported as “inactive; negative”. The mutagenic call (Species/Cell Type: Nonhuman, Assay Type: Sister-chromatid exchange (SCE) in vitro, Assay Code: SC2+, Evaluation Type: Evaluation B (Post-1980)) was “active; positive”.

For `NS(=O)(=O)c1cc(C(=O)O)c(NCc2ccco2)cc1Cl`, the mutagenic call (Species/Cell Type: Human, Assay Type: Sister-chromatid exchange (SCE) in vitro, Assay Code: SC1T, Evaluation Type: Evaluation B (Post-1980)) was “no conclusion”, the mutagenic call (Species/Cell Type: Saccharomyces cerevisiae, Assay Type: Mitotic recombination or gene conversion, Assay Code: YEC-*, Activation: With metabolic activation, Evaluation Type: Evaluation A (Pre-1980)) was “inactive; negative” and the mutagenic call [2] was “no conclusion”.

With `CC(=O)NN` the mutagenic call (Species/Cell Type: Mammalian polychromatic erythrocytes, Assay Type: Micronucleus test, chromosome aberrations, Assay Code: MNT+U, Dose Response: Unconfirmed positive response, Evaluation Type: Evaluation B (Post-1980)) was “active; positive”.

For `C=Cc1ccccc1C`, the mutagenic call (Species/Cell Type: Human lymphocytes, Assay Type: Sister-chromatid exchange (SCE) in vitro, Assay Code: SCL+D, Dose Response: With dose response, Evaluation Type: Evaluation B (Post-1980)) was “active; positive” and the mutagenic call (Species/Cell Type: Human, Assay Type: Sister-chromatid exchange (SCE) in vitro, Assay Code: SC1+D, Dose Response: With dose response, Evaluation Type: Evaluation B (Post-1980)) was “active; positive”.

`CCN1CC[C@@H]2[C@@H](c3ccc(C)cc3)c3cc(C)ccc3[C@@H]2C1` was tested, and the mutagenic call [3] was “inactive; negative”, the mutagenic call (Species/Cell Type: Rodents, Sex: Male, Assay Type: Dominant lethal test, Assay Code: DLT-, Evaluation Type: Evaluation A (Pre-1980)) was “inactive; negative” and the mutagenic call [2] was “no conclusion”.

In the case of `O=NN1CCC(Cl)C(Cl)C1` (centres undefined), the mutagenic call (Species/Cell Type: Drosophila melanogaster, Assay Type: Aneuploidy, partial sex chromosome loss, chromosome aberrations, Assay Code: DAPT, Evaluation Type: Evaluation A (Pre-1980)) is reported as “no conclusion”, the mutagenic call (Species/Cell Type: Drosophila melanogaster, Assay Type: Aneuploidy, whole sex chromosome loss, chromosome aberrations, Assay Code: DACT, Evaluation Type: Evaluation A (Pre-1980)) is reported as “no conclusion” and the mutagenic call [1] is reported as “active; positive”.

For `Nc1ccccc1-c1ccccc1`, the mutagenic call (Species/Cell Type: Escherichia coli polA (W3110 vs P3478), Assay Type: Rec-assay, DNA effects (bacterial DNA repair), Assay Code: RE2-, Evaluation Type: Evaluation A (Pre-1980)) was “inactive; negative”, the mutagenic call (Species/Cell Type: Escherichia coli polA (W3119 vs P3478), Assay Type: Rec-assay, DNA effects (bacterial DNA repair), Assay Code: RE1T, Evaluation Type: Evaluation A (Pre-1980)) was “no conclusion” and the mutagenic call (Species/Cell Type: Fischer rat embryo (RLV/1706) cells, Assay Type: Cell transformation, viral enhanced, Assay Code: CTR-, Evaluation Type: Evaluation A (Pre-1980)) was “inactive; negative”. The mutagenic call (Species/Cell Type: Mouse embryo (AKR/ME) cells, Assay Type: Cell transformation, Assay Code: CTK+, Evaluation Type: Evaluation A (Pre-1980)) was “active; positive”, the call (Species/Cell Type: Nonhuman, Assay Type: In vivo carcinogenicity studies, Assay Code: CCGT, Evaluation Type: Evaluation A (Pre-1980)) was “no conclusion” and the mutagenic call (Species/Cell Type: Nonhuman, Assay Type: Sister-chromatid exchange (SCE) in vivo, Assay Code: SC3T, Evaluation Type: Evaluation B (Post-1980)) was “no conclusion”. The mutagenic call (Species/Cell Type: Rat primary hepatocytes, Assay Type: Unscheduled DNA synthesis (UDS) in vitro, DNA effects, Assay Code: UDP-, Evaluation Type: Evaluation A (Pre-1980)) was “inactive; negative”, the mutagenic call (Species/Cell Type: Saccharomyces cerevisiae, Assay Type: Mitotic recombination or gene conversion, Assay Code: YEH-, Evaluation Type: Evaluation A (Pre-1980)) was “inactive; negative” and the mutagenic call (Species/Cell Type: Salmonella typhimurium (one or more of the five standard strains: TA98, TA100, TA1535, TA1537, and TA1538), Assay Type: Histidine reverse gene mutation, Ames assay, Assay Code: SAL+*, Activation: With metabolic activation, Evaluation Type: Evaluation A (Pre-1980)) was “active; positive”. For the same compound, the mutagenic call (Species/Cell Type: Salmonella typhimurium, Assay Type: Forward and reverse gene mutation, body fluid assay, Assay Code: BFU-, Evaluation Type: Evaluation A (Pre-1980)) was “inactive; negative”, the mutagenic call (Species/Cell Type: Salmonella typhimurium, Assay Type: Forward and reverse gene mutation, host-mediated assay, Assay Code: HMA-, Evaluation Type: Evaluation A (Pre-1980)) was “inactive; negative” and the mutagenic call (Species/Cell Type: Syrian hamster embryo (SHE) cells, Assay Type: Cell transformation, clonal assay, Assay Code: CTC-, Evaluation Type: Evaluation A (Pre-1980)) was “inactive; negative”.

In the case of `c1ncncn1`, the mutagenic call (Species/Cell Type: Drosophila melanogaster, Assay Type: Sex-linked recessive lethal gene mutation, Assay Code: SRLT, Evaluation Type: Evaluation A (Pre-1980)) is reported as “no conclusion”.
